Data reported in ChEMBL document CHEMBL1156814, “Highly suppressing wild-type HIV-1 and Y181C mutant HIV-1 strains by 10-chloromethyl-11-demethyl-12-oxo-calanolide A with druggable profile” (J Med Chem, 2010).

What was measured:
Mus musculus [1] = assay: Toxicity in ICR mouse assessed as mortality at 1000 mg/kg, ig after 4 days administered as single dose; assay type: organism-based; design: dose 1000 mg/kg, route intragastric; settings: in vivo, po, 96 h
Mus musculus [2] = assay: Toxicity in ICR mouse assessed as mortality at 1000 mg/kg, ig after 7 days administered as single dose; assay type: organism-based; design: dose 1000 mg/kg, route intragastric; settings: in vivo, po, 168 h
Mus musculus [3] = assay: Toxicity in ICR mouse assessed as mortality at 1000 mg/kg, ig after 11 days administered as single dose; assay type: organism-based; design: dose 1000 mg/kg, route intragastric; settings: in vivo, po, 264 h
Mus musculus [4] = assay: Toxicity in ICR mouse assessed as mortality at 1000 mg/kg, ig after 14 days administered as single dose; assay type: organism-based; design: dose 1000 mg/kg, route intragastric; settings: in vivo, po, 336 h
Mus musculus [5] = assay: Toxicity in ICR mouse assessed as body weight at 4640 mg/kg, ig after 1 day administered as single dose (reference value: 21.1+/-0.9); assay type: organism-based; design: dose 4640 mg/kg, route intragastric; settings: in vivo, po, 24 h
Mus musculus [6] = assay: Toxicity in ICR mouse assessed as body weight at 4640 mg/kg, ig after 4 days administered as single dose (reference value: 21.1+/-0.9); assay type: organism-based; design: dose 4640 mg/kg, route intragastric; settings: in vivo, po, 96 h
Mus musculus [7] = assay: Toxicity in ICR mouse assessed as body weight at 4640 mg/kg, ig after 7 days administered as single dose (reference value: 21.1+/-0.9); assay type: organism-based; design: dose 4640 mg/kg, route intragastric; settings: in vivo, po, 168 h
Mus musculus [8] = assay: Toxicity in ICR mouse assessed as body weight at 2150 mg/kg, ig after 1 day administered as single dose (reference value: 20.9+/-0.9); assay type: organism-based; design: dose 2150 mg/kg, route intragastric; settings: in vivo, po, 24 h
Mus musculus [9] = assay: Toxicity in ICR mouse assessed as body weight at 2150 mg/kg, ig after 4 days administered as single dose (reference value: 20.9+/-0.9); assay type: organism-based; design: dose 2150 mg/kg, route intragastric; settings: in vivo, po, 96 h
Mus musculus [10] = assay: Toxicity in ICR mouse assessed as body weight at 2150 mg/kg, ig after 7 days administered as single dose (reference value: 20.9+/-0.9); assay type: organism-based; design: dose 2150 mg/kg, route intragastric; settings: in vivo, po, 168 h
Mus musculus [11] = assay: Toxicity in ICR mouse assessed as body weight at 1000 mg/kg, ig after 1 day administered as single dose (reference value: 21.2+/-0.8); assay type: organism-based; design: dose 1000 mg/kg, route intragastric; settings: in vivo, po, 24 h
Mus musculus [12] = assay: Toxicity in ICR mouse assessed as body weight at 1000 mg/kg, ig after 4 days administered as single dose (reference value: 21.2+/-0.8); assay type: organism-based; design: dose 1000 mg/kg, route intragastric; settings: in vivo, po, 96 h
Mus musculus [13] = assay: Toxicity in ICR mouse assessed as body weight at 1000 mg/kg, ig after 7 days administered as single dose (reference value: 21.2+/-0.8); assay type: organism-based; design: dose 1000 mg/kg, route intragastric; settings: in vivo, po, 168 h
[14] = test system: Human immunodeficiency virus 1; assay: Antiviral activity against 100 TCID50 HIV1 infected in human TZM-b1 cells assessed as inhibition of viral replication by pseudovirus based assay; assay type: functional, organism-based
[15] = Toxicity in African green monkey Vero cells; assay type: cell-based; settings: chlorocebus sabaeus
[16] = Selectivity index, ratio of IC50 for African green monkey Vero cells to EC50 for HIV1; assay type: toxicity, cell-based; settings: read-out: Selectivity Index
[17] = test system: Human immunodeficiency virus 1; assay: Antiviral activity against HIV1 PNL4-3; assay type: functional, organism-based; settings: Human immunodeficiency virus 1, PNL4-3
[18] = test system: Human immunodeficiency virus 1; assay: Antiviral activity against HIV1 with reverse transcriptase K103N mutation; assay type: functional, organism-based
[19] = test system: Human immunodeficiency virus 1; assay: Antiviral activity against HIV1 with reverse transcriptase Y181C mutation; assay type: functional, organism-based
[20] = test system: Human immunodeficiency virus 1; assay: Antiviral activity against HIV1 with reverse transcriptase Y181L mutation; assay type: functional, organism-based
[21] = test system: Human immunodeficiency virus 1; assay: Antiviral activity against HIV1 with reverse transcriptase G190A mutation; assay type: functional, organism-based
[22] = test system: Human immunodeficiency virus 1; assay: Antiviral activity against HIV1 with reverse transcriptase […] mutation; assay type: functional, organism-based
Rattus norvegicus [23] = assay: AUC in Wistar rat at 50 mg/kg, po; assay type: ADME, organism-based, Plasma; design: dose 50 mg/kg, route oral; settings: in vivo
[24] = Mean residence time in Wistar rat at 50 mg/kg, po; assay type: ADME, organism-based; design: dose 50 mg/kg, route oral; settings: in vivo
[25] = Half life in Wistar rat at 50 mg/kg, po; assay type: ADME, organism-based; design: dose 50 mg/kg, route oral; settings: in vivo
[26] = Tmax in Wistar rat at 50 mg/kg, po; assay type: ADME, organism-based; design: dose 50 mg/kg, route oral; settings: in vivo
[27] = Cmax in Wistar rat at 50 mg/kg, po; assay type: ADME, organism-based; design: dose 50 mg/kg, route oral; settings: in vivo
Rattus norvegicus [28] = assay: AUC in Wistar rat at 5 mg/kg, iv; assay type: ADME, organism-based, Plasma; design: dose 5 mg/kg, route intravenous; settings: in vivo
[29] = Mean residence time in Wistar rat at 5 mg/kg, iv; assay type: ADME, organism-based; design: dose 5 mg/kg, route intravenous; settings: in vivo
[30] = Half life in Wistar rat at 5 mg/kg, iv; assay type: ADME, organism-based; design: dose 5 mg/kg, route intravenous; settings: in vivo
[31] = Tmax in Wistar rat at 5 mg/kg, iv; assay type: ADME, organism-based; design: dose 5 mg/kg, route intravenous; settings: in vivo
[32] = Cmax in Wistar rat at 5 mg/kg, iv; assay type: ADME, organism-based; design: dose 5 mg/kg, route intravenous; settings: in vivo
[33] = Oral bioavailability in Wistar rat at 50 mg/kg; assay type: ADME, organism-based; settings: in vivo
Mus musculus [34] = assay: Toxicity in ICR mouse assessed as mortality at 4640 mg/kg, ig after 1 day administered as single dose; assay type: organism-based; design: dose 4640 mg/kg, route intragastric; settings: in vivo, po, 24 h
Mus musculus [35] = assay: Toxicity in ICR mouse assessed as mortality at 4640 mg/kg, ig after 4 days administered as single dose; assay type: organism-based; design: dose 4640 mg/kg, route intragastric; settings: in vivo, po, 96 h
Mus musculus [36] = assay: Toxicity in ICR mouse assessed as mortality at 4640 mg/kg, ig after 7 days administered as single dose; assay type: organism-based; design: dose 4640 mg/kg, route intragastric; settings: in vivo, po, 168 h
Mus musculus [37] = assay: Toxicity in ICR mouse assessed as mortality at 4640 mg/kg, ig after 11 days administered as single dose; assay type: organism-based; design: dose 4640 mg/kg, route intragastric; settings: in vivo, po, 264 h
Mus musculus [38] = assay: Toxicity in ICR mouse assessed as mortality at 4640 mg/kg, ig after 14 days administered as single dose; assay type: organism-based; design: dose 4640 mg/kg, route intragastric; settings: in vivo, po, 336 h
Mus musculus [39] = assay: Toxicity in ICR mouse assessed as mortality at 2150 mg/kg, ig after 1 day administered as single dose; assay type: organism-based; design: dose 2150 mg/kg, route intragastric; settings: in vivo, po, 24 h
Mus musculus [40] = assay: Toxicity in ICR mouse assessed as mortality at 2150 mg/kg, ig after 4 days administered as single dose; assay type: organism-based; design: dose 2150 mg/kg, route intragastric; settings: in vivo, po, 96 h
Mus musculus [41] = assay: Toxicity in ICR mouse assessed as mortality at 2150 mg/kg, ig after 7 days administered as single dose; assay type: organism-based; design: dose 2150 mg/kg, route intragastric; settings: in vivo, po, 168 h
Mus musculus [42] = assay: Toxicity in ICR mouse assessed as mortality at 2150 mg/kg, ig after 11 days administered as single dose; assay type: organism-based; design: dose 2150 mg/kg, route intragastric; settings: in vivo, po, 264 h
Mus musculus [43] = assay: Toxicity in ICR mouse assessed as mortality at 2150 mg/kg, ig after 14 days administered as single dose; assay type: organism-based; design: dose 2150 mg/kg, route intragastric; settings: in vivo, po, 336 h
Mus musculus [44] = assay: Toxicity in ICR mouse assessed as mortality at 1000 mg/kg, ig after 1 day administered as single dose; assay type: organism-based; design: dose 1000 mg/kg, route intragastric; settings: in vivo, po, 24 h
[45] = Human immunodeficiency virus 1, TZM-b1, read-out: EC50

With CCCc1cc(=O)oc2c3c(c4c(c12)OC(C)(C)C=C4)OC(CCl)CC3=O (stereo not given) the Activity (Mus musculus [1]) was “Non-toxic”, the Activity (Mus musculus [2]) was “Non-toxic” and the Activity (Mus musculus [3]) was “Non-toxic”. For the same molecule, the Activity (Mus musculus [4]) was “Non-toxic”, the Activity (Mus musculus [5]) was 23.2 g and the Activity (Mus musculus [6]) was 27.5 g. The Activity (Mus musculus [7]) was 29.9 g, the Activity (Mus musculus [8]) was 23 g and the Activity (Mus musculus [9]) was 28 g. The Activity (Mus musculus [10]) was 31.4 g, the Activity (Mus musculus [11]) was 23 g and the Activity (Mus musculus [12]) was 28.5 g. For the same molecule, the Activity (Mus musculus [13]) was 31.1 g, the EC50 [14, 45] was 7.4 nM and the CC50 [15] was 10500 nM. The selectivity ratio [16] was 1420, the EC50 [17] was 7.4 nM and the EC50 [18] was 316 nM. It also gave an EC50 [19] of 0.46 nM, an EC50 [20] of 6130 nM and an EC50 [21] of 43.9 nM. It also gave an EC50 [22] of 104 nM, an AUC (Rattus norvegicus [23]) of 4.7 ug/hr.ml and an MRT [24] of 9.2 h. The half-life [25] was 3.8 h, the Tmax [26] was 8 h and the Cmax [27] was 340 ng/mL. It also gave an AUC (Rattus norvegicus [28]) of 1.5 ug/hr.ml, an MRT [29] of 1.7 h and a half-life [30] of 1.9 h. For the same molecule, the Tmax [31] was 1.8 min, the Cmax [32] was 930 ng/mL and the bioavailability [33] was 32.7%. The Activity (Mus musculus [34]) was “Non-toxic”, the Activity (Mus musculus [35]) was “Non-toxic” and the Activity (Mus musculus [36]) was “Non-toxic”. The Activity (Mus musculus [37]) was “Non-toxic”, the Activity (Mus musculus [38]) was “Non-toxic” and the Activity (Mus musculus [39]) was “Non-toxic”. The Activity (Mus musculus [40]) was “Non-toxic”, the Activity (Mus musculus [41]) was “Non-toxic” and the Activity (Mus musculus [42]) was “Non-toxic”. For the same molecule, the Activity (Mus musculus [43]) was “Non-toxic” and the Activity (Mus musculus [44]) was “Non-toxic”.
For CCCc1cc(=O)oc2c3c(c4c(c12)OC(C)(C)C=C4)OC(CNS(=O)(=O)c1ccc(OC)cc1)CC3=O (stereo not given), the EC50 ([14]; tzm-b1) was “Not Active”.
With CCCc1cc(=O)oc2c3c(c4c(c12)OC(C)(C)C=C4)OC(CNS(=O)(=O)c1ccc(F)cc1)CC3=O (stereo not given) the EC50 ([14]; tzm-b1) was “Not Active”.
For CCCc1cc(=O)oc2c3c(c4c(c12)OC(C)(C)C=C4)OC(CN)CC3=O (stereo not given) [1'-AMINEMETHYL-11-DEMETHYL-12-OXO-CALANOLIDE A], the EC50 ([14]; tzm-b1) was “Not Active”.
With CCCc1cc(=O)oc2c3c(c4c(c12)OC(C)(C)C=C4)OC(CSC)CC3=O (stereo not given) the EC50 [14, 45] was 456 nM.
For CCCc1cc(=O)oc2c3c(c4c(c12)OC(C)(C)C=C4)O[C@H](C)[C@@H](C)[C@@H]3O [CALANOLIDE A], the EC50 [14, 45] was 100 nM, the selectivity ratio [16] was 16 and the EC50 [17] was 11.4 nM. It also gave an EC50 [18] of 464 nM, an EC50 [19] of 10600 nM and an EC50 [20] of 7170 nM. For the same molecule, the EC50 [21] was 159 nM and the EC50 [22] was 2.2 nM.
For CCCc1cc(=O)oc2c3c(c4c(c12)OC(C)(C)C=C4)OC(CN1CCCC1)CC3=O (stereo not given), the EC50 ([14]; tzm-b1) was “Not Active”.
In the case of CCCc1cc(=O)oc2c3c(c4c(c12)OC(C)(C)C=C4)OC(C(F)(F)F)CC3=O (stereo not given), the EC50 [14, 45] is reported as 14900 nM.
In the case of CCCc1cc(=O)oc2c3c(c4c(c12)OC(C)(C)C=C4)OC(CN(C)C)CC3=O (stereo not given), the EC50 ([14]; tzm-b1) is reported as “Not Active”.
Work on CCCc1cc(=O)oc2c3c(c4c(c12)OC(C)(C)C=C4)OC(C[S+](C)[O-])CC3=O (stereo not given) yielded an EC50 [14, 45] of 14400 nM.
